Organism: Rattus norvegicus
Experiment: DrugMatrix - Regimen: Daily Repeat
Type: toxicity, organism-based, Sprague-Dawley
Parameters: regimen Daily Repeat, gender Male, age 6-8 weeks
Details: in vivo, po, […], route oral GAVAGE; for ABSOLUTE BASOPHIL / ABSOLUTE EOSINOPHIL / ABSOLUTE LYMPHOCYTE / ABSOLUTE MONOCYTE / ABSOLUTE SEGMENTED NEUTROPHIL / BASOPHIL / EOSINOPHIL / ERYTHROCYTE COUNT / HEMATOCRIT / HEMOGLOBIN / LEUKOCYTE COUNT / LYMPHOCYTE / MEAN CORPUSCULAR HEMOGLOBIN / MEAN CORPUSCULAR HEMOGLOBIN CONCENTRATION / MEAN CORPUSCULAR VOLUME / MONOCYTE / NEUTROPHIL / NUCLEATED RED BLOOD CELLS / PLATELET COUNT: tissue Blood; for ALANINE AMINOTRANSFERASE / ALBUMIN / ALKALINE PHOSPHATASE / ASPARTATE AMINOTRANSFERASE / BLOOD UREA NITROGEN / CARBON DIOXIDE / CHLORIDE / CHOLESTEROL / CREATINE PHOSPHOKINASE / CREATININE / GLUCOSE / LACTATE DEHYDROGENASE / LIPASE / PHOSPHORUS / POTASSIUM / SODIUM / TOTAL BILIRUBIN / TOTAL PROTEIN / URIC ACID: tissue Plasma
[1] = 400 mg/kg, dose level Low, time 7 day
[2] = 1175 mg/kg, 72 h, dose level High, time 3 day
[3] = 1175 mg/kg, dose level High, time 7 day

For `ClC(Cl)(Cl)Cl` [CARBON TETRACHLORIDE], the “ABSOLUTE BASOPHIL” value [1] was 0 CELLS/uL, the “ABSOLUTE EOSINOPHIL” value [1] was 0 CELLS/uL and the “ABSOLUTE LYMPHOCYTE” value [1] was 12903.17 CELLS/uL. For the same molecule, the “ABSOLUTE MONOCYTE” value [1] was 339.83 CELLS/uL, the “ABSOLUTE SEGMENTED NEUTROPHIL” value [1] was 990.33 CELLS/uL and the BASOPHIL [1] was 0%. For the same molecule, the EOSINOPHIL [1] was 0%, the “ERYTHROCYTE COUNT” value [1] was 6.32 x10E6/uL and the HEMATOCRIT [1] was 37.03%. For the same molecule, the HEMOGLOBIN [1] was 14.83 G/DL, the “LEUKOCYTE COUNT” value [1] was 14.23 x10E3/uL and the LYMPHOCYTE [1] was 90.33%. The “MEAN CORPUSCULAR HEMOGLOBIN” value [1] was 23.5 pg, the “MEAN CORPUSCULAR HEMOGLOBIN CONCENTRATION” value [1] was 40.08 G/DL and the “MEAN CORPUSCULAR VOLUME” value [1] was 58.68 fL. For the same molecule, the MONOCYTE [1] was 2.17%, the NEUTROPHIL [1] was 7.5% and the “NUCLEATED RED BLOOD CELLS” value [1] was 0 /100WBC. The “PLATELET COUNT” value [1] was 869.5 x10E3/uL, the “ALANINE AMINOTRANSFERASE” value [1] was 295.83 u/L and the ALBUMIN [1] was 4.12 G/DL. For the same molecule, the “ALKALINE PHOSPHATASE” value [1] was 598 u/L, the “ASPARTATE AMINOTRANSFERASE” value [1] was 469.33 u/L and the “BLOOD UREA NITROGEN” value [1] was 15.17 mg/dL. The “CARBON DIOXIDE” value [1] was 29 mmol/L, the CHLORIDE [1] was 99.67 MEQ/L and the CHOLESTEROL [1] was 34.17 mg/dL. For the same molecule, the “CREATINE PHOSPHOKINASE” value [1] was 258.83 u/L, the CREATININE [1] was 0.27 mg/dL and the GLUCOSE [1] was 129 mg/dL. For the same molecule, the “LACTATE DEHYDROGENASE” value [1] was 176.83 u/L, the LIPASE [1] was 10 u/L and the PHOSPHORUS [1] was 9.22 mg/dL. The POTASSIUM [1] was 5.35 MEQ/L, the SODIUM [1] was 142.35 MEQ/L and the “TOTAL BILIRUBIN” value [1] was 0.22 mg/dL. The “TOTAL PROTEIN” value [1] was 5.88 G/DL, the “URIC ACID” value [1] was 0.82 mg/dL and the “ABSOLUTE BASOPHIL” value [2] was 0 CELLS/uL. The “ABSOLUTE EOSINOPHIL” value [2] was 29 CELLS/uL, the “ABSOLUTE LYMPHOCYTE” value [2] was 12136.5 CELLS/uL and the “ABSOLUTE MONOCYTE” value [2] was 331.83 CELLS/uL. For the same molecule, the “ABSOLUTE SEGMENTED NEUTROPHIL” value [2] was 869.33 CELLS/uL, the BASOPHIL [2] was 0% and the EOSINOPHIL [2] was 0.33%. The “ERYTHROCYTE COUNT” value [2] was 6.02 x10E6/uL, the HEMATOCRIT [2] was 37.65% and the HEMOGLOBIN [2] was 13.88 G/DL. The “LEUKOCYTE COUNT” value [2] was 13.37 x10E3/uL, the LYMPHOCYTE [2] was 90.67% and the “MEAN CORPUSCULAR HEMOGLOBIN” value [2] was 23.13 pg. For the same molecule, the “MEAN CORPUSCULAR HEMOGLOBIN CONCENTRATION” value [2] was 36.9 G/DL, the “MEAN CORPUSCULAR VOLUME” value [2] was 62.75 fL and the MONOCYTE [2] was 2.5%. For the same molecule, the NEUTROPHIL [2] was 6.5%, the “NUCLEATED RED BLOOD CELLS” value [2] was 0.17 /100WBC and the “PLATELET COUNT” value [2] was 800.67 x10E3/uL. The “ALANINE AMINOTRANSFERASE” value [2] was 129 u/L, the ALBUMIN [2] was 3.92 G/DL and the “ALKALINE PHOSPHATASE” value [2] was 531.5 u/L. For the same molecule, the “ASPARTATE AMINOTRANSFERASE” value [2] was 232.83 u/L, the “BLOOD UREA NITROGEN” value [2] was 19.17 mg/dL and the “CARBON DIOXIDE” value [2] was 31.33 mmol/L. For the same molecule, the CHLORIDE [2] was 101.5 MEQ/L, the CHOLESTEROL [2] was 41.67 mg/dL and the “CREATINE PHOSPHOKINASE” value [2] was 258.5 u/L. The CREATININE [2] was 0.28 mg/dL, the GLUCOSE [2] was 144.83 mg/dL and the “LACTATE DEHYDROGENASE” value [2] was 110 u/L. For the same molecule, the LIPASE [2] was 10.5 u/L, the PHOSPHORUS [2] was 9.55 mg/dL and the POTASSIUM [2] was 5.46 MEQ/L. For the same molecule, the SODIUM [2] was 145.42 MEQ/L, the “TOTAL BILIRUBIN” value [2] was 0.1 mg/dL and the “TOTAL PROTEIN” value [2] was 5.68 G/DL. For the same molecule, the “URIC ACID” value [2] was 0.45 mg/dL, the “ABSOLUTE BASOPHIL” value [3] was 0 CELLS/uL and the “ABSOLUTE EOSINOPHIL” value [3] was 0 CELLS/uL. The “ABSOLUTE LYMPHOCYTE” value [3] was 11238.67 CELLS/uL, the “ABSOLUTE MONOCYTE” value [3] was 252 CELLS/uL and the “ABSOLUTE SEGMENTED NEUTROPHIL” value [3] was 1109.33 CELLS/uL. For the same molecule, the BASOPHIL [3] was 0%, the EOSINOPHIL [3] was 0% and the “ERYTHROCYTE COUNT” value [3] was 6.55 x10E6/uL. The HEMATOCRIT [3] was 37.82%, the HEMOGLOBIN [3] was 14.68 G/DL and the “LEUKOCYTE COUNT” value [3] was 12.6 x10E3/uL. For the same molecule, the LYMPHOCYTE [3] was 89%, the “MEAN CORPUSCULAR HEMOGLOBIN” value [3] was 22.53 pg and the “MEAN CORPUSCULAR HEMOGLOBIN CONCENTRATION” value [3] was 38.87 G/DL. The “MEAN CORPUSCULAR VOLUME” value [3] was 57.97 fL, the MONOCYTE [3] was 2% and the NEUTROPHIL [3] was 9%. The “NUCLEATED RED BLOOD CELLS” value [3] was 0 /100WBC, the “PLATELET COUNT” value [3] was 761 x10E3/uL and the “ALANINE AMINOTRANSFERASE” value [3] was 302 u/L. For the same molecule, the ALBUMIN [3] was 3.77 G/DL, the “ALKALINE PHOSPHATASE” value [3] was 779.83 u/L and the “ASPARTATE AMINOTRANSFERASE” value [3] was 589.83 u/L. For the same molecule, the “BLOOD UREA NITROGEN” value [3] was 17.67 mg/dL, the “CARBON DIOXIDE” value [3] was 30.5 mmol/L and the CHLORIDE [3] was 98.83 MEQ/L. For the same molecule, the CHOLESTEROL [3] was 26.5 mg/dL, the “CREATINE PHOSPHOKINASE” value [3] was 269.67 u/L and the CREATININE [3] was 0.24 mg/dL. The GLUCOSE [3] was 122.83 mg/dL, the “LACTATE DEHYDROGENASE” value [3] was 182.5 u/L and the LIPASE [3] was 9.17 u/L. The PHOSPHORUS [3] was 9.22 mg/dL, the POTASSIUM [3] was 5.74 MEQ/L and the SODIUM [3] was 142.6 MEQ/L. The “TOTAL BILIRUBIN” value [3] was 0.22 mg/dL, the “TOTAL PROTEIN” value [3] was 5.7 G/DL and the “URIC ACID” value [3] was 0.47 mg/dL.
